ChEMBL document CHEMBL1138126, “Tyrosine kinase inhibitors. 19. 6-Alkynamides of 4-anilinoquinazolines and 4-anilinopyrido[3,4-d]pyrimidines as irreversible inhibitors of the erbB family of tyrosine kinase receptors” (J Med Chem, 2006)
The source made the active and inactive calls. No cut-off for these calls is given here.

Tests used:
[1] = biological target: Receptor tyrosine-protein kinase erbB-4 (Homo sapiens, UniProt Q15303)
Description: Inhibition of erbB4 fusion protein expressed in baculovirus by ELISA

[2] = biological target: T1, Epidermal growth factor receptor (Homo sapiens, UniProt P00533); assay: Inhibition of erbB1 fusion protein expressed in baculovirus by ELISA
[3] = biological target: T2, Receptor tyrosine-protein kinase erbB-2 (Homo sapiens, UniProt P04626)
Description: Inhibition of HER stimulated human erbB autophosphorylation in MDA-MB-453 cells

[4] = biological target: T2, Receptor tyrosine-protein kinase erbB-2; remark: listed apart in the source
Description: Inhibition of erbB2 fusion protein expressed in baculovirus by ELISA

[5] = biological target: T1, Epidermal growth factor receptor; assay: Inhibition of EGF stimulated human erbB1 autophosphorylation in NIH3T3 cells
[6] = AUC(0-tz) in rat at 5 mg/kg, iv; assay type: ADME, organism-based; parameters: dose 5 mg/kg, route intravenous; settings: plasma
[7] = tested on: Mus musculus; assay: Antitumor activity in NCr nu/nu mice implanted with SKOV3 xenografts at 40 mg/kg, po; assay type: functional, organism-based; parameters: dose 40 mg/kg
[8] = Cmax in monkey at 30 mg/kg, po; assay type: ADME, organism-based, Macaca mulatta; parameters: dose 30 mg/kg, route oral; settings: rhesus monkey, in vivo
[9] = Tmax in monkey at 30 mg/kg, po; assay type: ADME, organism-based, Macaca mulatta; parameters: dose 30 mg/kg, route oral; settings: rhesus monkey, in vivo
[10] = AUC(0-tz) in monkey at 30 mg/kg, po; assay type: ADME, organism-based, Macaca mulatta; parameters: dose 30 mg/kg, route oral; settings: rhesus monkey, plasma
[11] = biological target: Platelet-derived growth factor receptor (Homo sapiens, UniProt P09619+P16234); assay: Inhibition of PDGF receptor; assay type: protein-complex assay
[12] = AUC(0-tz) in dog at 15 mg/kg, po; assay type: ADME, organism-based, Canis lupus familiaris; parameters: dose 15 mg/kg, route oral; settings: plasma
[13] = Plasma clearance in monkey at 5 mg/kg, iv; assay type: ADME, organism-based, Macaca mulatta; parameters: dose 5 mg/kg, route intravenous; settings: rhesus monkey
[14] = AUC(0-tz) in monkey at 5 mg/kg, iv; assay type: ADME, organism-based, Macaca mulatta; parameters: dose 5 mg/kg, route intravenous; settings: rhesus monkey, plasma
[15] = Oral bioavailability in monkey at 30 mg/kg; assay type: ADME, organism-based, Macaca mulatta; settings: rhesus monkey, in vivo
[16] = Oral bioavailability in rat at 15 mg/kg; assay type: ADME, organism-based; settings: in vivo
[17] = AUC(0-tz) in dog at 5 mg/kg, iv; assay type: ADME, organism-based, Canis lupus familiaris; parameters: dose 5 mg/kg, route intravenous; settings: plasma
[18] = Tmax in rat at 15 mg/kg, po; assay type: ADME, organism-based; parameters: dose 15 mg/kg, route oral; settings: in vivo
[19] = tested on: Mus musculus; assay: Antitumor activity in SCID mice implanted with SF 767 xenografts at 40 mg/kg, po; assay type: functional, organism-based; parameters: dose 40 mg/kg; settings: CB17
[20] = tested on: Mus musculus; assay: Antitumor activity in NCr nu/nu mice implanted with H125 NSC xenografts at 40 mg/kg, po; assay type: functional, organism-based; parameters: dose 40 mg/kg
[21] = Plasma clearance in rat at 5 mg/kg, iv; assay type: ADME, organism-based; parameters: dose 5 mg/kg, route intravenous
[22] = Cmax in rat at 15 mg/kg, po; assay type: ADME, organism-based; parameters: dose 15 mg/kg, route oral; settings: in vivo
[23] = biological target: Insulin receptor (Homo sapiens, UniProt P06213); assay: Inhibition of insulin receptor
[24] = tested on: Mus musculus; assay: Antitumor activity in SCID mice implanted with BXPC3 xenografts at 40 mg/kg, po; assay type: functional, organism-based; parameters: dose 40 mg/kg; settings: CB17
[25] = AUC(0-tz) in rat at 15 mg/kg, po; assay type: ADME, organism-based; parameters: dose 15 mg/kg, route oral; settings: plasma
[26] = tested on: Mus musculus; assay: Antitumor activity in NCr nu/nu mice implanted with A431 xenografts at 10 mg/kg, po; assay type: functional, organism-based; parameters: dose 10 mg/kg
[27] = Tmax in dog at 15 mg/kg, po; assay type: ADME, organism-based, Canis lupus familiaris; parameters: dose 15 mg/kg, route oral; settings: in vivo
[28] = Half life in rat at 5 mg/kg, iv; assay type: ADME, organism-based; parameters: dose 5 mg/kg, route intravenous; settings: in vivo
[29] = Half life in dog at 5 mg/kg, iv; assay type: ADME, organism-based, Canis lupus familiaris; parameters: dose 5 mg/kg, route intravenous; settings: in vivo
[30] = biological target: T2, Receptor tyrosine-protein kinase erbB-2; remark: listed apart in the source
Description: Inhibition of ligand stimulated erbB2 autophosphorylation in T24 NIH cells

[31] = Cmax in dog at 15 mg/kg, po; assay type: ADME, organism-based, Canis lupus familiaris; parameters: dose 15 mg/kg, route oral; settings: in vivo
[32] = Volume of distribution in rat at 5 mg/kg, iv; assay type: ADME, organism-based; parameters: dose 5 mg/kg, route intravenous; settings: in vivo, read-out: Vdss
[33] = Volume of distribution in dog at 5 mg/kg, iv; assay type: ADME, organism-based, Canis lupus familiaris; parameters: dose 5 mg/kg, route intravenous; settings: in vivo, read-out: Vdss
[34] = Half life in monkey at 5 mg/kg, iv; assay type: ADME, organism-based, Macaca mulatta; parameters: dose 5 mg/kg, route intravenous; settings: rhesus monkey, in vivo
[35] = Oral bioavailability in dog at 15 mg/kg; assay type: ADME, organism-based, Canis lupus familiaris; settings: in vivo
[36] = biological target: Fibroblast growth factor receptor (Homo sapiens, UniProt P22607+P11362+P22455+P21802); assay: Inhibition of FGFR; assay type: protein assay
[37] = Volume of distribution in monkey at 5 mg/kg, iv; assay type: ADME, organism-based, Macaca mulatta; parameters: dose 5 mg/kg, route intravenous; settings: rhesus monkey, in vivo, read-out: Vdss
[38] = Plasma clearance in dog at 5 mg/kg, iv; assay type: ADME, organism-based, Canis lupus familiaris; parameters: dose 5 mg/kg, route intravenous

Chain of Receptor tyrosine-protein kinase erbB-4 (Q15303 whole entry, the tested form may be a part): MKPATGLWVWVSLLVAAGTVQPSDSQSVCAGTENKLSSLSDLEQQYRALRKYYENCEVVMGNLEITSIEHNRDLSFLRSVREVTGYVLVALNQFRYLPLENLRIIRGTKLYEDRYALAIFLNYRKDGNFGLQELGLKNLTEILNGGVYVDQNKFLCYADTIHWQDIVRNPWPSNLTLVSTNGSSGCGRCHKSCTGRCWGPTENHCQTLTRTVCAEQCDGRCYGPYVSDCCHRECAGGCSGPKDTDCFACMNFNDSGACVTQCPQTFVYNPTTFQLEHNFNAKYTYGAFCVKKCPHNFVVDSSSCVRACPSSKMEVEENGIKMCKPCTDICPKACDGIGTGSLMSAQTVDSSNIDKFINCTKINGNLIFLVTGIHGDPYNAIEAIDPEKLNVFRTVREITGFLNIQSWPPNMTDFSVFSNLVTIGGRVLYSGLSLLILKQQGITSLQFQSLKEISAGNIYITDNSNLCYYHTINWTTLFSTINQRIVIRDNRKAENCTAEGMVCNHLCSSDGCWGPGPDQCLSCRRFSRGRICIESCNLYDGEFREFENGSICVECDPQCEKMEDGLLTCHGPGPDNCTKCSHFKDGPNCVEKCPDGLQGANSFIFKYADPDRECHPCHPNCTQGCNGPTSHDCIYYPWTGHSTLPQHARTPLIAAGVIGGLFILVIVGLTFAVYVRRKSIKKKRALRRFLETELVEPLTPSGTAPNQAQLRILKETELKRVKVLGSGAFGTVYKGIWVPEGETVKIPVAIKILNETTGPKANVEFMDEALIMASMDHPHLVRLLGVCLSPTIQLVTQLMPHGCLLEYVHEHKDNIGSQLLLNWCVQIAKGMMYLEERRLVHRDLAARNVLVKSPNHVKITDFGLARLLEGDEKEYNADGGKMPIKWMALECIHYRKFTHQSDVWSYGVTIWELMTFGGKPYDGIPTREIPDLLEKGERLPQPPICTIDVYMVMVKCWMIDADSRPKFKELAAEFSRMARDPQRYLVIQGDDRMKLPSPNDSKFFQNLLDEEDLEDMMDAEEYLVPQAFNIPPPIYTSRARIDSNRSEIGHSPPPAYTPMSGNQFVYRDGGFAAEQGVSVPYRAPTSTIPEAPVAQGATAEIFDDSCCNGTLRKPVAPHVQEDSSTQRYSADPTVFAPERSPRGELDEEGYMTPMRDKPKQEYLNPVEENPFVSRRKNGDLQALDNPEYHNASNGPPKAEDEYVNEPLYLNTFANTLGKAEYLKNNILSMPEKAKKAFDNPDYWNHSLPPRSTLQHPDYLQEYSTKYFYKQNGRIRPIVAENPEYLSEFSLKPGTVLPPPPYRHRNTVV
T2 sequence (P04626 whole entry): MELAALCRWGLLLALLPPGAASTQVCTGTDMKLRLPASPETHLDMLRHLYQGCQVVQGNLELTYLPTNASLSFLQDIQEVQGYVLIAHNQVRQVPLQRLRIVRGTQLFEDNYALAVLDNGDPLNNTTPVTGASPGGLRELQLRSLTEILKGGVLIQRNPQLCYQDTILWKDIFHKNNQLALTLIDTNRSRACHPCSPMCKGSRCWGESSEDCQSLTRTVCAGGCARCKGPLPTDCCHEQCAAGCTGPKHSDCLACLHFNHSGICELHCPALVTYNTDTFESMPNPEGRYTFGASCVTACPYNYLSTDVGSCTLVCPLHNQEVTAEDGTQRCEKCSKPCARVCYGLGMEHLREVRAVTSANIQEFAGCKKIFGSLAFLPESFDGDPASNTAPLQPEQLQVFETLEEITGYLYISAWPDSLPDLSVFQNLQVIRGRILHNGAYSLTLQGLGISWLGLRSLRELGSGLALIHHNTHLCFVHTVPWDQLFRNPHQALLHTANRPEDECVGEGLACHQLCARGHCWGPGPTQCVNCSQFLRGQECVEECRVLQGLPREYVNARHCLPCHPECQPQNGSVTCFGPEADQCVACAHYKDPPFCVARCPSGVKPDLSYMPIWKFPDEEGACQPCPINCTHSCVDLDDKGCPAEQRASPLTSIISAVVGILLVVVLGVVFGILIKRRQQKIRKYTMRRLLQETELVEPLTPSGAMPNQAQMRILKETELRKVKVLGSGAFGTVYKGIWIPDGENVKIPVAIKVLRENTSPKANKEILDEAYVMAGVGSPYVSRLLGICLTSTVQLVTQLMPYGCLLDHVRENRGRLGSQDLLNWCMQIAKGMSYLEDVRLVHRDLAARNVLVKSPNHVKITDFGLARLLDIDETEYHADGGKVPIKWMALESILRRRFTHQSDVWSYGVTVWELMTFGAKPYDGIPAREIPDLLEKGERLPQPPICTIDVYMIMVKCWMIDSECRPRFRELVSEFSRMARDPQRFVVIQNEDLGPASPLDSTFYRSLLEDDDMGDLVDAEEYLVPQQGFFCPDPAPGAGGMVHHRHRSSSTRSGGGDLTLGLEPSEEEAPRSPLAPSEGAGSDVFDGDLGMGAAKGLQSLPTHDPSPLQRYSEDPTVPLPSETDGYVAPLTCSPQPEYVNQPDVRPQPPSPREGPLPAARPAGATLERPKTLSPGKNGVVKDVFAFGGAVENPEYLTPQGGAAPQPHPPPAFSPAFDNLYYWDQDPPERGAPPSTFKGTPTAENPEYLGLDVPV
T1 sequence (P00533 whole entry, the tested form may be a part): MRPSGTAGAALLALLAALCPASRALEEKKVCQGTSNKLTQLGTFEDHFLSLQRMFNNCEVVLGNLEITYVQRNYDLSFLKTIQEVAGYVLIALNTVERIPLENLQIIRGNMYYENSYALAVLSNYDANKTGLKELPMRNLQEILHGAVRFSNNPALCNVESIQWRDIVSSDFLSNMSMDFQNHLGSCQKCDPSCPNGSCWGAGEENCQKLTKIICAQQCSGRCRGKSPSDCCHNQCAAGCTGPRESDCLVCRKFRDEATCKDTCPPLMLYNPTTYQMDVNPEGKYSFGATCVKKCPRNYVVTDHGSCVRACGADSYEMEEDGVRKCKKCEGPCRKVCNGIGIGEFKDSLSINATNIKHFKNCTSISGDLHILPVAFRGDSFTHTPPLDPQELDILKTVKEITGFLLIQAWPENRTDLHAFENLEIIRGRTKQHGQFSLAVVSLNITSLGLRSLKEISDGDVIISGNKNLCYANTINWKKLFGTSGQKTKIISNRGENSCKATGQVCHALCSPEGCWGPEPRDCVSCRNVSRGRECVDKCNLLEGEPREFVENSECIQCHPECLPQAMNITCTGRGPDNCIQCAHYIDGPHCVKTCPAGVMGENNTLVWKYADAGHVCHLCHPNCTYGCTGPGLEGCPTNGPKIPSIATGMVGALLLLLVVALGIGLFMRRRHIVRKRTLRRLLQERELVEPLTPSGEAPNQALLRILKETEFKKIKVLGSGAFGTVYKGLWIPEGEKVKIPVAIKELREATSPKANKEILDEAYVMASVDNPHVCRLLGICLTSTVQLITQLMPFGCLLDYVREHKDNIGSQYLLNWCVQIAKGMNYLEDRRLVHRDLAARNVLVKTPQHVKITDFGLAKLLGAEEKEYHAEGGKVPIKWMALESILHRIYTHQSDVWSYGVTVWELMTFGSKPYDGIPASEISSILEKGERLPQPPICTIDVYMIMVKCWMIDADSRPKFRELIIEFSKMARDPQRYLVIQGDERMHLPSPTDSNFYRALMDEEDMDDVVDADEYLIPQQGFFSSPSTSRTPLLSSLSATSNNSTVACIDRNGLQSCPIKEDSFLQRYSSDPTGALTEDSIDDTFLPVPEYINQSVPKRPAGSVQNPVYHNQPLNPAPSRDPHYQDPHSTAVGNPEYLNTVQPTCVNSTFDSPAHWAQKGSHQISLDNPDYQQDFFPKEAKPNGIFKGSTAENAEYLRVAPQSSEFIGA
Chain of Insulin receptor (P06213 28-758 limits assumed): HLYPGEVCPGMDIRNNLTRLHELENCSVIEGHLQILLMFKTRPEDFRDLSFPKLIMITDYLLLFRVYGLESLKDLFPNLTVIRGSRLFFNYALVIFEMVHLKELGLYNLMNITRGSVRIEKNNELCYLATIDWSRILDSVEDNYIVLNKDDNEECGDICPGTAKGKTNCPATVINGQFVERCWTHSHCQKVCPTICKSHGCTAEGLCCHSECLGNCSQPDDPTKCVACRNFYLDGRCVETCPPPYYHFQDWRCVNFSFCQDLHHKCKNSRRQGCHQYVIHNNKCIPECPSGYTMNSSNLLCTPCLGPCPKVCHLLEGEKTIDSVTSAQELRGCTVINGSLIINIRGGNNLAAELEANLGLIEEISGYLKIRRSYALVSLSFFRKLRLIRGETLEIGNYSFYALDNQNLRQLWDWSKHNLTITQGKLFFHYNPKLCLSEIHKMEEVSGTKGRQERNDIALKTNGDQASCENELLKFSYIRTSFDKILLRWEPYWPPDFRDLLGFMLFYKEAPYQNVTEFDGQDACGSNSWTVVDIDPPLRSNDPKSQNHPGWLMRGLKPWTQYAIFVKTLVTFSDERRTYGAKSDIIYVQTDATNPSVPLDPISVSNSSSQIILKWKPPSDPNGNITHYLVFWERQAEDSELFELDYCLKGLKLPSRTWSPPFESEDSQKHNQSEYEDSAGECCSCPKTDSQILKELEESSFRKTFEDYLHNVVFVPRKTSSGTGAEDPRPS
Chain of Insulin receptor (P06213 763-1382 limits assumed): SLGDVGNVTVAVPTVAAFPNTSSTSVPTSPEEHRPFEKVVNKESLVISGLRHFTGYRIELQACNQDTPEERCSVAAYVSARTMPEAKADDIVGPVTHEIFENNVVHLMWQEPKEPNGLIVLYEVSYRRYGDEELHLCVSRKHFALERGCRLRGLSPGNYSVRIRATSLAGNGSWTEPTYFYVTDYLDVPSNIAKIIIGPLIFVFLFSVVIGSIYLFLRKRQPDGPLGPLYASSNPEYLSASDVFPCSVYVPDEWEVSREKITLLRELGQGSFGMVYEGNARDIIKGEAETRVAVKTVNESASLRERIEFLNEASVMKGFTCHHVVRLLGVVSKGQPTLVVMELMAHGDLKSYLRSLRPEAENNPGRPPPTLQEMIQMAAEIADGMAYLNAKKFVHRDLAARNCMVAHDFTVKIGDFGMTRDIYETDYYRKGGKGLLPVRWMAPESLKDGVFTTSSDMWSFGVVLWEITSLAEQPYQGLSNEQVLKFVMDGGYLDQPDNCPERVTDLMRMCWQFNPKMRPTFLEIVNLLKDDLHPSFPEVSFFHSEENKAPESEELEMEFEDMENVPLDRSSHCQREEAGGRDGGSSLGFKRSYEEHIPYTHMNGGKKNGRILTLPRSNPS

O=C(C#CCCN1CCCCC1)Nc1cc2c(Nc3ccc(F)c(Cl)c3)ncnc2cn1
IC50 [1]: 1.8 nM | IC50 [2]: 0.9 nM | IC50 [3]: 2 nM | IC50 [4]: 2.1 nM | IC50 [5]: 4.3 nM

CCCCN(CC#CC(=O)Nc1cc2c(Nc3ccc(F)c(Cl)c3)ncnc2cn1)CCCC
IC50 [1]: 73 nM | IC50 [2]: 17 nM | IC50 [3]: 320 nM | IC50 [4]: 67 nM | IC50 [5]: 49 nM

CC#CC(=O)Nc1cc2c(Nc3ccc(F)c(Cl)c3)ncnc2cn1
IC50 [1]: 0.5 nM | IC50 [3]: 24 nM | IC50 [4]: 1.1 nM

O=C(C#CCN1CCOCC1)Nc1cc2c(Nc3ccc(F)c(Cl)c3)ncnc2cn1
IC50 [1]: 6.2 nM | IC50 [2]: 3.1 nM | IC50 [3]: 22 nM | IC50 [4]: 26 nM | IC50 [5]: 14 nM

CC(C)N(CC#CC(=O)Nc1cc2c(Nc3ccc(F)c(Cl)c3)ncnc2cn1)C(C)C
IC50 [1]: 538 nM | IC50 [2]: 44 nM | IC50 [3]: 36 nM | IC50 [4]: > 1000 nM | IC50 [5]: 73 nM

CC(C)N(CC#CC(=O)Nc1ccc2ncnc(Nc3ccc(F)c(Cl)c3)c2c1)C(C)C
IC50 [3]: 65 nM | IC50 [4]: 2.8 nM

O=C(C#CCCN1CCOCC1)Nc1ccc2ncnc(Nc3ccc(F)c(Cl)c3)c2c1
IC50 [1]: 4.3 nM | IC50 [2]: 1.7 nM | IC50 [3]: 7.6 nM | IC50 [4]: 2.3 nM | IC50 [5]: 12 nM

CN1CCN(CCC#CC(=O)Nc2cc3c(Nc4ccc(F)c(Cl)c4)ncnc3cn2)CC1
AUC [6]: 703 ng·h/mL | Activity [7]: Active | Cmax [8]: 83.5 ng/mL | IC50 [1]: 1.2 nM | Tmax [9]: 3.5 h | AUC [10]: 485 ng·h/mL | IC50 [11]: > 50000 nM | AUC [12]: 15200 ng·h/mL | clearance [13]: 85.8 mL/min/kg | AUC [14]: 1190 ng·h/mL | bioavailability [15]: 6.75% | bioavailability [16]: 11.4% | AUC [17]: 7470 ng·h/mL | Tmax [18]: 4.7 h | Activity [19]: Active | IC50 [3]: 1 nM | Activity [20]: Active | clearance [21]: 119 mL/min/kg | Cmax [22]: 56.3 ng/mL | IC50 [23]: > 50000 nM | Activity [24]: Active | AUC [25]: 240 ng·h/mL | Activity [26]: Active | IC50 [4]: 0.7 nM | Tmax [27]: 1 h | half-life [28]: 0.83 h | half-life [29]: 1.86 h | IC50 [30]: 0.8 nM | Cmax [31]: 4180 ng/mL | Vd [32]: 3.1 L/kg | Vd [33]: 0.93 L/kg | half-life [34]: 0.37 h | bioavailability [35]: 67.8% | IC50 [36]: > 50000 nM | Vd [37]: 1.7 L/kg | clearance [38]: 11.5 mL/min/kg

CCN(CC)CC#CC(=O)Nc1ccc2ncnc(Nc3ccc(F)c(Cl)c3)c2c1
IC50 [1]: 310 nM | IC50 [2]: 3.1 nM | IC50 [3]: 7.5 nM | IC50 [4]: 46 nM | IC50 [5]: 6.8 nM

O=C(C#CCCN1CCOCC1)Nc1cc2c(Nc3ccc(F)c(Br)c3)ncnc2cn1
IC50 [1]: 1 nM | IC50 [2]: 1.5 nM | IC50 [3]: 0.5 nM | IC50 [4]: 0.7 nM | IC50 [5]: 4.5 nM

CCCCC#CC(=O)Nc1cc2c(Nc3ccc(F)c(Cl)c3)ncnc2cn1
IC50 [1]: 7.1 nM | IC50 [2]: 15 nM | IC50 [3]: 20 nM | IC50 [4]: 5.4 nM | IC50 [5]: 4.5 nM

O=C(C#CCCN1CCOCC1)Nc1cc2c(Nc3ccc(F)c(Cl)c3)ncnc2cn1
IC50 [1]: 1 nM | IC50 [2]: 1.3 nM | IC50 [3]: 5 nM | IC50 [4]: 0.8 nM | IC50 [5]: 1.8 nM

CC#CC(=O)Nc1ccc2ncnc(Nc3cccc(Br)c3)c2c1
IC50 [1]: 12 nM | IC50 [4]: 17 nM

CN1CCN(CCC#CC(=O)Nc2cc3c(Nc4ccc(F)c(Br)c4)ncnc3cn2)CC1
IC50 [1]: 0.8 nM | IC50 [2]: 1.1 nM | IC50 [3]: 3.5 nM | IC50 [4]: 0.5 nM | IC50 [5]: 2.7 nM

CCCCN(CC#CC(=O)Nc1ccc2ncnc(Nc3ccc(F)c(Cl)c3)c2c1)CCCC
IC50 [1]: 624 nM | IC50 [2]: 40 nM | IC50 [3]: 32 nM | IC50 [4]: 464 nM | IC50 [5]: 11 nM

CCN(CC)CCC#CC(=O)Nc1ccc2ncnc(Nc3ccc(F)c(Cl)c3)c2c1
IC50 [1]: 16 nM | IC50 [2]: 1.8 nM | IC50 [3]: 23 nM | IC50 [4]: 2.6 nM | IC50 [5]: 4.5 nM

CCN(CC)CC#CC(=O)Nc1cc2c(Nc3ccc(F)c(Cl)c3)ncnc2cn1
IC50 [1]: 644 nM | IC50 [2]: 15 nM | IC50 [3]: 116 nM | IC50 [4]: 597 nM | IC50 [5]: 48 nM

CCCC#CC(=O)Nc1cc2c(Nc3ccc(F)c(Cl)c3)ncnc2cn1
IC50 [1]: 2.4 nM | IC50 [2]: 1.7 nM | IC50 [3]: 170 nM | IC50 [4]: 3.8 nM | IC50 [5]: 9.6 nM

O=C(C#CCN1CCOCC1)Nc1ccc2ncnc(Nc3ccc(F)c(Cl)c3)c2c1
IC50 [1]: 229 nM | IC50 [2]: 86 nM | IC50 [3]: 173 nM | IC50 [4]: 300 nM | IC50 [5]: 31 nM

O=C(C#CCO)Nc1ccc2ncnc(Nc3ccc(F)c(Cl)c3)c2c1
IC50 [1]: 7.3 nM | IC50 [2]: 1.4 nM | IC50 [3]: 43 nM | IC50 [4]: 2.1 nM | IC50 [5]: 25 nM

C#CC(=O)Nc1ccc2ncnc(Nc3cccc(Br)c3)c2c1
IC50 [1]: 1.7 nM | IC50 [4]: 1.9 nM

C#CC(=O)Nc1cc2c(Nc3cccc(Br)c3)ncnc2cn1
IC50 [1]: 13 nM | IC50 [2]: 0.6 nM | IC50 [4]: 2.4 nM | IC50 [5]: 15 nM
